# Measurements published in patent US20100280098A1, “RECEPTOR TARGETED OLIGONUCLEOTIDES” (priority 2007, published 2010).
# Entries after “also recorded” stand apart in the source; their conditions may differ.
# Legend:
# A375SM-Luc705-B cells [1] = test: Luciferase splice-correction assay with peptide-oligonucleotide conjugates; format: cell-based; conditions: for luciferase expression: dose-response and mismatch control studies, luciferase after 48 h
# Procedure: Cell Lines and Plasmids: A375SM melanoma cells were obtained from Dr. J. Bear (University of North Carolina, Chapel Hill, N.C., United States of America), and were cultured in Dulbecco's minimum essential medium (DMEM; Invitrogen, Carlsbad, Calif., United States of America) supplemented with L-glutamine and 10% fetal bovine serum (FBS). Plasmid pLuc/705, containing an aberrant intron inserted into the firefly luciferase coding sequence, was obtained from Dr. R. Kole (University of North Carolina, Chapel Hill, N.C., United States of America). See Kang et al. (1998) Biochemistry, 37, 6235-6239. Stable transfectants were obtained by cotransfecting A375SM cells with one part of hygromycin resistant plasmid pcDNA3.1(+)/hygro (Invitrogen, Carlsbad, Calif., United States of America) and ten parts of pLuc/705 using LIPOFECTAMINE™ 2000 (Invitrogen, Carlsbad, Calif., United States of America) as per manufacturer's instructions. Selection was carried out in DMEM containing 200 μg/mL hygromycin and 10% FBS. The resulting pool of hygromycin resistant cells was referred to as A375SM-Luc705-B.
# Oligonucleotide treatment and luciferase assay: A375SM-Luc705-B cells were plated on 12 well plates (at 1.0 or 1.5×10^5 cells per well in various experiments) in DMEM supplemented with 10% FBS. The following day, medium was changed to reduced serum OPTI-MEM I (Invitrogen, Carlsbad, Calif., United States of America). […] Four hours after treatment, 1% FBS was added to each well. Twenty four hours after oligonucleotide treatment, medium was replaced with DMEM containing 1% FBS, and at various times thereafter cell lysates were collected for luciferase assay.
# Cells were usually harvested 48 hours after oligonucleotide treatment, or at times indicated in the figures, and activity determined using a Luciferase assay kit (Promega, Madison, Wis., United States of America). Measurements were performed on a Monolight 2010 instrument (Analytical Luminescence Laboratory, San Diego, Calif., United States of America).
# A375SM-Luc705-B cells [2] = test: Luciferase splice-correction assay with albumin conjugates; format: cell-based
# Procedure: Oligonucleotide Treatment of Cells and Luciferase Assay: A375SM-Luc705-B cells were seeded onto 12 well plates at 1×10^5 cells per well in medium containing 10% FBS. […] After 4 h of treatment, FBS was added to each well to 1%. After 24 h, cells were washed with DMEM medium containing 10% FBS and incubated in DMEM supplemented with 1% FBS for 48 h prior to harvest.
# A375SM-Luc705-B cells [3] = test: Total cellular uptake of Tamra-labeled oligonucleotides (microfluorimeter); format: cell-based; conditions: for cell viability: 1-10 mM β-cyclodextrin, 0.2-20 μM cytochalasin D; for effect on uptake of the RGD-oligonucleotide conjugate: inhibitor 15 min before 100 nM RGD-623-Tamra, uptake after 4 h
# Description: (§1) Cell Uptake, Confocal Fluorescence Microscopy, and Flow Cytometry: Total cellular uptake of Tamra-labeled oligonucleotides was monitored using a Nanodrop microfluorimeter (Nanodrop Technologies, Wilmington, Del., United States of America). After treatment with oligonucleotides the cells were lysed in a mild non-ionic detergent buffer and the Tamra fluorescence (emission 583 nm) was quantitated based on a linear standard curve of unconjugated Tamra in buffer. Intracellular distribution of Tamra-labeled oligonucleotides was examined using an Olympus Confocal FV300 fluorescent microscope (Olympus America Inc., Center Valley, Pa., United States of America) with 60X-oil immersion objective, as previously described. See Astriab-Fisher et al. (2004) Biochem. Pharmacol., 68, 403-407. Expression levels of αvβ3 were monitored by immunostaining with an anti-human-αvβ3 monoclonal (Chemicon, Temecula, Calif., United States of America) followed by an Alexa 488 rabbit antimouse secondary antibody, with analysis by flow cytometry using a DakoCytomation (Glostrop, Denmark) machine.
# A375SM-Luc705-B cells [4] = test: Subcellular distribution and co-localization by confocal fluorescence microscopy (peptide conjugate); format: cell-based; conditions: for co-localization with dextran / co-localization with transferrin: 2 h; for co-localization with dextran / co-localization with transferrin / co-localization with transferrin or dextran markers: live cells, 100 nM; for co-localization with transferrin or dextran markers: 24 h
# Description: as §1
# A375SM-Luc705-B cells [5] = test: Total cellular accumulation of albumin conjugates (fluorimeter); format: cell-based; conditions: nontoxic concentrations, 30 min prior to 100 nM conjugate, 4 h
# Procedure: Cellular Uptake and Confocal Microscopy: Cells were seeded onto either 12 well plates at 1×10^5 cells per well for cellular uptake measurements or in 12 well glass-bottom plates at 2×10^4 cells per well for live cell analysis by confocal microscopy. […], the cells were either lysed for measurement of Tamra fluorescence using a Nanodrop microfluorimeter (Nanodrop Technologies, Wilmington, Deleware, United States of America) or washed with DMEM containing 10% FBS and then placed in DMEM without phenol red, supplemented with 1% FBS, for confocal microscopy analysis. Co-localization of Tamra-labeled oligonucleotides with Alexa 488 labeled Transferrin or Dextran (Molecular Probes, Beaverton, Oreg., United States of America) in live cell was also examined by confocal microscopy. An Olympus confocal microscope with a 60× objective lens was used, and the data were processed using Fluoview software (Olympus, Center Valley, Pa., United States of America) as described in Example 1.
# [6] = test system: αvβ3-positive M21+ human melanoma cells; test: Total cellular uptake in αvβ3-positive cells; format: cell-based; conditions: 12.5-100 nM
# Description: (§2) Results represent means and standard errors of triplicate determinations and are expressed as RFUs per microgram cell protein.
# as §1
# [7] = test system: αvβ3-negative M21− human melanoma cells; test: Total cellular uptake in αvβ3-negative cells; format: cell-based; conditions: 12.5-100 nM
# Description: as §2, §1
# αvβ3 = test: Cell surface αvβ3 level by immunostaining and flow cytometry; format: cell-based, human; conditions: 200 nM, 24 h exposure
# Procedure: Then, αvβ3 levels were determined by immunostaining with anti-αvβ3 antibody. […] The y axis of each panel indicates the number of cells, while the x axis indicates the log of fluorescence intensity.
# as §1
# A375SM-Luc705-B cells [8] = test: Short-term toxicity, viable cell count after 48 h (peptide conjugate); format: cell-based
# Procedure: Toxicity Studies: Cells were treated with various concentrations of oligonucleotides or conjugates under the same conditions as used for the luciferase induction experiments. After 48 h in medium plus 1% FBS, cells were trypsinized and viable cells were counted in an electronic particle counter.
# [9] = Re-dissolution of lyophilized conjugate in sterile water; format: physicochemical; conditions: after dialysis and lyophilization
# Description: The peptide conjugation reaction occurred between the maleimide of the bicyclic RGD peptide and the 5′ thiol (—SH) of the oligonucleotide (2). The reaction proceeded efficiently and more than 95% of the starting oligonucleotide (2) was converted into conjugates with bicyclic RGD. The conjugates were purified by ion-exchange chromatography (Resource™ Q column, GE Healthcare, Chalfont St. Giles, United Kingdom) under highly denaturing conditions to avoid any sort of precipitation, although this was not expected to be a problem for this type of peptide. […] Similar approaches were used for the preparation of other oligonucleotides and conjugates. In each case the structure of the final product was confirmed by MALDI-TOF mass spectroscopy.
# [10] = listed as RGD-623-Tamra conjugate
compound,measurement,setting,value
5′-GTAATTATTTATAATCGTCC-Tamra-3′ [5MM623-Tamra],luciferase expression,A375SM-Luc705-B cells [1],failed to produce an increase in luciferase expression
"5′-GTTATTCTTTAGAATGGTGC-3′ (antisense GTTATTCTTTAGAATGGTGC; all 2'-O-methyl, all phosphorothioate, T or U not given here; further chemistry not fully specified) [compound 623]",influence of the Tamra fluorophore on the action of 623,"A375SM-Luc705-B cells [1]; RGD conjugate or lipofection, concentrations up to 75 nM",did not affect the action of 623
same,influence of the Tamra fluorophore on the action of 623,A375SM-Luc705-B cells [1]; concentrations above 100 nM,slight augmentation of effect by Tamra
same,luciferase activity,"A375SM-Luc705-B cells [2]; 25-200 nM, 72 h",did not cause a significant increase in luciferase activity
CC(C)[C@@H]1NC(=O)[C@@H](Cc2ccccc2)NC(=O)[C@H](CC(=O)O)NC(=O)CNC(=O)[C@H](CCCN=C(N)N)NC1=O [RGDfV],inhibition of the effect of RGD-623-Tamra on luciferase expression,"A375SM-Luc705-B cells [1]; 0.1-100 μM peptide 30 min prior to 200 nM conjugate, 48 h",progressive inhibition
same,effect of co-incubation on the increased uptake of the RGD-conjugate,A375SM-Luc705-B cells [3]; excess peptide,could be blocked
same,effect of co-incubation on cell associated fluorescence of RGD-623-Tamra conjugate,A375SM-Luc705-B cells [4]; data not shown,substantially reduced total cell associated fluorescence
same,toxicity of the blocking peptide,A375SM-Luc705-B cells [2]; at the concentrations used,does not cause cell detachment or other obvious toxicity
same,effect on the ability of the RPA-623 conjugate to activate luciferase,"A375SM-Luc705-B cells [2]; excess peptide (0.1-10 μM) 30 min prior to 100 nM conjugate, 48 h",completely blocks
same,effect on cellular accumulation of RPA-623-Tamra,A375SM-Luc705-B cells [5],inhibited
C=C1[C@@H](C)[C@H]2[C@H](Cc3ccccc3)NC(=O)[C@]23[C@H](OC(C)=O)/C=C/[C@@](C)(O)C(=O)[C@@H](C)C/C=C/[C@H]3[C@@H]1O [cytochalasin D],cell viability,A375SM-Luc705-B cells [3],No loss of cell viability was detected
same,cell morphology,A375SM-Luc705-B cells [3]; highest concentration,caused some cell rounding
same,effect on uptake of the RGD-oligonucleotide conjugate,A375SM-Luc705-B cells [3],block the uptake
same,effect on cellular accumulation of RPA-623-Tamra,A375SM-Luc705-B cells [5],inhibited
OC[C@H]1O[C@@H]2O[C@H]3[C@H](O)[C@@H](O)[C@@H](O[C@H]4[C@H](O)[C@@H](O)[C@@H](O[C@H]5[C@H](O)[C@@H](O)[C@@H](O[C@H]6[C@H](O)[C@@H](O)[C@@H](O[C@H]7[C@H](O)[C@@H](O)[C@@H](O[C@H]8[C@H](O)[C@@H](O)[C@@H](O[C@H]1[C@H](O)[C@H]2O)O[C@@H]8CO)O[C@@H]7CO)O[C@@H]6CO)O[C@@H]5CO)O[C@@H]4CO)O[C@@H]3CO [β-cyclodextrin],cell viability,A375SM-Luc705-B cells [3],No loss of cell viability was detected
same,effect on uptake of the RGD-oligonucleotide conjugate,A375SM-Luc705-B cells [3],block the uptake
same,effect on cellular accumulation of RPA-623-Tamra,A375SM-Luc705-B cells [5],inhibited
Bivalent-RGD-Mal-S—(CH2)6-5MM623-Tamra,luciferase expression,A375SM-Luc705-B cells [1],failed to produce an increase in luciferase expression
BivalentRGD-Mal-S—(CH2)6-623-Tamra [RGD-623-Tamra],concentration dependence of the luciferase effect,A375SM-Luc705-B cells [1],rises rapidly between zero and 100 nM and then begins to plateau
same,time of maximum effect on luciferase expression,"A375SM-Luc705-B cells [1]; 200 nM, 48 h after removal of the oligonucleotide",72 h
same,time course of the effect on luciferase expression,"A375SM-Luc705-B cells [1]; 24-120 h, conjugate 200 nM, complex 100 nM",rose gradually with time
same,concentration at which substantial effects on luciferase were observed,A375SM-Luc705-B cells [1]; 48 h,50 nM
same,low concentration at which significant effects were still observed,A375SM-Luc705-B cells [1]; 48 h,5 nM
same,luciferase expression,A375SM-Luc705-B cells [1],produced a significant increase in luciferase expression
same,effect on luciferase relative to 623/cationic lipid complex,"A375SM-Luc705-B cells [1]; higher concentrations of RGD-623, complex at 100 nM oligonucleotide",approximately 50%
same,total cellular uptake compared to unconjugated oligonucleotide,"A375SM-Luc705-B cells [3]; 12.5, 50 or 100 nM, 4 h",~2 fold
same,uptake by M21+ cells as compared to M21− cells,[6],about 3 times
same,uptake in M21− cells as compared to 623-Tamra control,[7],slightly greater uptake
same,level of surface αvβ3 expression,αvβ3,no effect
same,level of surface αvβ3 expression,αvβ3; listed as RGD-623 conjugate,lack of down-regulation of αvβ3
same,co-localization with dextran,A375SM-Luc705-B cells [4],Substantial overlap
same,co-localization with transferrin,A375SM-Luc705-B cells [4],no overlap
same,co-localization with dextran,A375SM-Luc705-B cells [4]; [10],significant co-localization
same,co-localization with transferrin,A375SM-Luc705-B cells [4]; [10],no co-localization
same,co-localization with transferrin or dextran markers,A375SM-Luc705-B cells [4],Substantial overlap
same,co-localization with transferrin or dextran markers,A375SM-Luc705-B cells [4]; [10],substantial co-localization
same,co-localization with caveolin-1,"A375SM-Luc705-B cells [4]; between 2 and 6 h, fixed permeabilized cells, 50 nM",significant co-localization
same,co-localization with αvβ3,"A375SM-Luc705-B cells [4]; early (6 h), fixed cells, 50 nM",Early co-localization
same,"co-localization with other markers (EAA1, LAMP1, clathrin)",A375SM-Luc705-B cells [4]; fixed cells,No significant co-localization
same,co-localization with trans-Golgi marker TG230,"A375SM-Luc705-B cells [4]; late (24 h), fixed cells, 50 nM",some co-loacalization
same,cellular uptake seen by confocal microscopy,"A375SM-Luc705-B cells [4]; living cells, 200 nM, complex 100 nM",substantial cellular uptake was observed
same,nuclear fluorescence,"A375SM-Luc705-B cells [4]; living cells, 200 nM, complex 100 nM, listed as RGD-623-Tamra conjugate",no readily observable nuclear fluorescence; also recorded: generally free of fluorescence
same,tolerability by cells,A375SM-Luc705-B cells [8]; concentration range needed for splice correction,well-tolerated by cells
same,short-term toxicity (viable cells),"A375SM-Luc705-B cells [8]; concentrations up to 1000 nM, 48 h",little effect
same,cell loss,A375SM-Luc705-B cells [8]; higher concentrations,did not result in significant cell loss
same,cell rounding,A375SM-Luc705-B cells [8]; higher concentrations,Some cell rounding was observed
same,re-dissolution in sterile water,[9],re-dissolved in sterile water without any difficulty
